From patent publication US20120214862A1, “MODULATION OF FACTOR 7 EXPRESSION” (ISIS Pharmaceuticals, Inc., priority 2009, published 2012)
In the oligonucleotide strings, read from the 5' end, every base follows the letter of its sugar. An asterisk marks phosphorothioate; unmarked linkages are phosphodiester. Other units and linkages are bracketed, terminal groups are in braces. A string of capitals states the bases alone. e = 2'-O-(2-methoxyethyl) (MOE); [5mC] = 5-methylcytosine; d = 2'-deoxy (DNA)

Tested on: human Factor 7 mRNA
Test: Antisense inhibition of human Factor 7 mRNA in HepB3 cells, lipofectin, 50 nM, real-time RT-PCR
Type: cell-based
Details: HepB3 cells; for % Inhibition (human Factor 7 mRNA): 50 nM, ~24 h
Procedure, shortened: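 HepB3 cells were transfected by lipofectin with 50 nM antisense oligonucleotide and harvested after about 24 h. Factor 7 mRNA was measured by real-time RT-PCR (primer probe set RTS 2927 in some runs), normalized to RIBOGREEN total RNA, and reported as percent inhibition versus untreated control.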

[1] = gapmers targeted to nucleobases 11830 to 11869 of SEQ ID NO: 1 (Table 9)
[2] = Example 1, lipofectin, relative to untreated control cells
[3] = lipofectin, 50 nM antisense oligonucleotide, approximately 24 hours, primer probe set RTS 2927, relative to untreated control
[4] = gapmers (5-10-5, 3-14-3, 2-13-5 MOE) targeted to nucleobases 4868 to 4899 of SEQ ID NO: 1
[5] = Example 4, lipofectin, relative to untreated control

Substance | % Inhibition (human Factor 7 mRNA) [2] [%] | % Inhibition of human Factor 7 mRNA levels [3] [%] | other results
422094 (antisense e[5mC]*eA*eA*eT*eG*dG*dT*d[5mC]*dA*dG*dG*dG*d[5mC]*dT*dG*eG*eT*eT*eT*eT) [compound 422094] | – | – | % Inhibition of human Factor 7 mRNA levels [1]: 48%
407957 (antisense eG*eG*e[5mC]*e[5mC]*eT*dG*dG*dG*dA*dA*d[5mC]*dT*dT*dG*d[5mC]*eA*eT*eT*eT*eA) [compound 407957] | 52 | – | –
416536 (antisense e[5mC]*eG*eG*eG*eA*dA*dG*dG*d[5mC]*d[5mC]*dT*dG*d[5mC]*d[5mC]*d[5mC]*eT*eG*e[5mC]*eA*eG) [compound 416536] | – | 23 | –
416433 (antisense eA*eG*eA*eA*eA*dT*d[5mC]*d[5mC]*dA*dG*dA*dA*d[5mC]*dA*dG*e[5mC]*eT*eT*e[5mC]*eG) [compound 416433] | – | 0 | –
416429 (antisense eA*e[5mC]*eG*e[5mC]*e[5mC]*dG*dT*dG*dG*dG*d[5mC]*dT*dT*d[5mC]*d[5mC]*eT*e[5mC]*e[5mC]*eT*eG) [compound 416429] | – | 47 | –
416550 (antisense eT*eG*eG*e[5mC]*eT*dG*dG*d[5mC]*dT*dG*dA*dG*dG*dA*dG*eA*e[5mC]*eA*eA*eT) [compound 416550] | – | 55 | –
416506 (antisense e[5mC]*eT*eT*eT*eA*dA*dA*dA*dT*d[5mC]*dA*dG*dT*dT*dT*e[5mC]*eA*e[5mC]*eA*e[5mC]) [compound 416506] | – | 18 | –
422242 (antisense eG*eG*dA*dG*dA*d[5mC]*dA*dA*dT*dG*dG*dT*d[5mC]*dA*dG*eG*eG*e[5mC]*eT*eG) [compound 422242] | – | – | % Inhibition of human Factor 7 mRNA levels [1]: 64%
416565 (antisense e[5mC]*eA*eG*eG*eA*dT*dG*d[5mC]*dT*d[5mC]*dA*dT*dG*dG*d[5mC]*eA*eG*eA*e[5mC]*eA) [compound 416565] | – | 0 | –
407928 (antisense e[5mC]*eT*eT*eG*eG*d[5mC]*dT*dG*dA*dA*dG*dG*dG*dA*dG*eG*eT*eA*eA*eG) [compound 407928] | 55 | – | –
416560 (antisense eT*eA*eA*eA*eA*d[5mC]*dT*dT*dT*dA*dT*dT*dT*dA*d[5mC]*eA*eA*eG*eA*eG) [compound 416560] | – | 0 | –
407954 (antisense e[5mC]*eA*eG*eG*eG*dA*dG*dA*dG*dA*dA*d[5mC]*dA*dT*d[5mC]*e[5mC]*eA*eA*eT*eT) [compound 407954] | 39 | – | –
422168 (antisense eT*eG*eA*dG*dG*dA*dG*dA*d[5mC]*dA*dA*dT*dG*dG*dT*d[5mC]*dA*eG*eG*eG) [compound 422168] | – | – | % Inhibition of human Factor 7 mRNA levels [1]: 30%
416556 (antisense eA*eT*eA*eG*e[5mC]*dT*dT*dT*dG*dA*dT*d[5mC]*d[5mC]*dA*dA*eT*eG*e[5mC]*eT*e[5mC]) [compound 416556] | – | 53 | –
407916 (antisense eG*eT*eG*eG*e[5mC]*d[5mC]*d[5mC]*dA*d[5mC]*dG*dG*dT*dT*dG*d[5mC]*eG*e[5mC]*eA*eG*e[5mC]) [compound 407916] | 53 | – | –
407946 (antisense eT*e[5mC]*e[5mC]*eA*eA*dA*dA*dA*dT*dG*dA*dA*dT*d[5mC]*dA*eT*eG*eG*eG*e[5mC]) [compound 407946] | 5 | – | –
422147 (antisense eG*eA*eG*e[5mC]*e[5mC]*d[5mC]*dG*dA*dG*dT*dT*d[5mC]*dT*dG*d[5mC]*eA*eG*eG*eA*eG) [compound 422147] | – | – | % Inhibition of human Factor 7 mRNA levels [4]: 64%
407613 (antisense eT*eG*e[5mC]*eT*e[5mC]*dA*d[5mC]*dA*dG*d[5mC]*d[5mC]*dG*d[5mC]*d[5mC]*dG*eT*eT*e[5mC]*eT*e[5mC]) [compound 407613] | 66 | – | –
407929 (antisense eG*e[5mC]*eA*eG*eA*dG*d[5mC]*dA*dG*d[5mC]*dA*dG*d[5mC]*d[5mC]*dT*eG*eA*eG*eG*e[5mC]) [compound 407929] | 53 | – | –
416452 (antisense e[5mC]*e[5mC]*eA*eA*e[5mC]*dA*dA*d[5mC]*dA*dG*dG*dA*d[5mC]*d[5mC]*dT*eG*e[5mC]*e[5mC]*eA*eT) [compound 416452] | – | 19 | –
422197 (antisense eT*eT*eA*d[5mC]*dT*dG*dA*dG*d[5mC]*dG*d[5mC]*dG*dG*dA*dA*dG*dA*eA*eG*eG) [compound 422197] | – | – | % Inhibition (human Factor 7 mRNA) [5]: 26%

Substance | % Inhibition (human Factor 7 mRNA) [2] [%] | % Inhibition of human Factor 7 mRNA levels [3] [%] | other results
416435 (antisense e[5mC]*e[5mC]*e[5mC]*eA*eT*d[5mC]*dA*d[5mC]*dT*dG*dT*dA*dA*dG*dA*eA*eA*eT*e[5mC]*e[5mC]) [compound 416435] | – | 3 | –
407645 (antisense eG*eA*eG*eA*eG*d[5mC]*dT*dA*dA*dA*d[5mC]*dA*dA*d[5mC]*d[5mC]*eG*e[5mC]*e[5mC]*eT*eT) [compound 407645] | 65 | – | –
422291 (antisense eT*eT*d[5mC]*dT*dG*d[5mC]*dA*dG*dG*dA*dG*d[5mC]*dG*dG*d[5mC]*e[5mC]*eT*eA*eA*eA) [compound 422291] | – | – | % Inhibition of human Factor 7 mRNA levels [4]: 53%
416471 (antisense eT*eG*eA*eG*e[5mC]*dT*dT*dT*dT*dG*d[5mC]*dA*dG*d[5mC]*d[5mC]*eA*e[5mC]*eT*e[5mC]*eG) [compound 416471] | – | 62 | –
407901 (antisense eT*eG*eG*eT*eG*dT*dT*dG*dA*dT*d[5mC]*dA*dG*dG*dG*eT*e[5mC]*e[5mC]*e[5mC]*e[5mC]) [compound 407901] | 89 | – | –
416432 (antisense eA*eG*e[5mC]*eA*e[5mC]*dT*dG*d[5mC]*dT*d[5mC]*d[5mC]*dT*d[5mC]*d[5mC]*dT*eT*eG*e[5mC]*eA*e[5mC]) [compound 416432] | – | 44 | –
416503 (antisense eT*eA*eG*e[5mC]*e[5mC]*dA*d[5mC]*d[5mC]*d[5mC]*d[5mC]*dG*d[5mC]*dG*dG*dG*e[5mC]*eT*eG*eG*e[5mC]) [compound 416503] | – | 0 | –
416516 (antisense eG*eT*eG*eA*eG*dA*dA*dT*dA*d[5mC]*dA*dA*d[5mC]*dA*dG*eA*eT*eG*eA*eG) [compound 416516] | – | 24 | –
407886 (antisense eG*e[5mC]*eA*eG*eA*dG*dG*dA*dG*d[5mC]*d[5mC]*dT*dG*dA*dG*eG*eG*e[5mC]*e[5mC]*eT) [compound 407886] | 72 | – | –
422123 (antisense eG*eA*eG*e[5mC]*eG*d[5mC]*dG*dG*dA*dA*dG*dA*dA*dG*dG*eG*eA*e[5mC]*eG*eG) [compound 422123] | – | – | % Inhibition (human Factor 7 mRNA) [5]: 16%
422198 (antisense eG*eT*eT*dA*d[5mC]*dT*dG*dA*dG*d[5mC]*dG*d[5mC]*dG*dG*dA*dA*dG*eA*eA*eG) [compound 422198] | – | – | % Inhibition (human Factor 7 mRNA) [5]: 50%
416470 (antisense eG*e[5mC]*eT*eT*eT*dT*dG*d[5mC]*dA*dG*d[5mC]*d[5mC]*dA*d[5mC]*dT*e[5mC]*eG*eA*eT*eG) [compound 416470] | – | 39 | –
407889 (antisense eT*e[5mC]*e[5mC]*eT*eG*dG*dG*dT*dT*dA*d[5mC]*dG*dA*dA*dG*eA*e[5mC]*eT*eG*e[5mC]) [compound 407889] | 54 | – | –
407907 (antisense eA*eA*eT*eG*eA*dG*dA*dA*dG*d[5mC]*dG*d[5mC]*dA*d[5mC]*dG*eA*eA*eG*eG*e[5mC]) [compound 407907] | 35 | – | –
407896 (antisense e[5mC]*eG*eT*eG*eT*dG*dG*dT*d[5mC]*dA*d[5mC]*dT*dG*d[5mC]*dA*eG*eT*eA*e[5mC]*eT) [compound 407896] | 73 | – | –
416460 (antisense e[5mC]*eA*e[5mC]*e[5mC]*eA*d[5mC]*dA*dT*dG*dG*dT*d[5mC]*dA*dG*dT*eG*eA*eG*eG*eA) [compound 416460] | – | 49 | –
422095 (antisense eA*e[5mC]*eA*eA*eT*dG*dG*dT*d[5mC]*dA*dG*dG*dG*d[5mC]*dT*eG*eG*eT*eT*eT) [compound 422095] | – | – | % Inhibition of human Factor 7 mRNA levels [1]: 60%
407663 (antisense eT*eT*eG*e[5mC]*eA*dG*dG*d[5mC]*dA*dG*dG*dA*d[5mC]*dT*dG*eG*eT*eG*eG*eT) [compound 407663] | 44 | – | –
422161 (antisense eA*e[5mC]*eA*dA*dT*dG*dG*dT*d[5mC]*dA*dG*dG*dG*d[5mC]*dT*dG*dG*eT*eT*eT) [compound 422161] | – | – | % Inhibition of human Factor 7 mRNA levels [1]: 53%
422107 (antisense eG*e[5mC]*eT*eG*eG*d[5mC]*dT*dG*dA*dG*dG*dA*dG*dA*d[5mC]*eA*eA*eT*eG*eG) [compound 422107] | – | – | % Inhibition of human Factor 7 mRNA levels [1]: 36%
